We go through one molecule from patent US8865733B2, “Medication and treatment for disease” (Altman Enterprises, LLC, priority 2008, dated 2014).

Assay [1] concerns MS patients. The conditions noted are these: LDN alone; cited from earlier work.
The subject of assay [2] is MS patients. Briefly: Treatment of individual MS patients with the medication (case reports, Patients A, B, C). The assay is classed as in vivo, human. To be noted: Patient C; low dose naltrexone 3 mg daily before the medication.
Text: Diagnosis was confirmed by an MRI of their brain, lumbar puncture, and visual evolved response.

Turning to `O=C1CC[C@@]2(O)[C@H]3Cc4ccc(O)c5c4[C@@]2(CCN3CC2CC2)[C@H]1O5` [low dose naltrexone, naltrexone], the “improvement of physical ability” value with MS patients [1] is on record as “no improvement of physical ability”. Moreover, the “improvement under earlier treatment” value in the assay on MS patients [2] is listed as “no improvement”.
